Experimental data: the supplement of paper PMC13380429

Tests used:
Conditions in all cases: 72 h
Caco-2 [1] = test: cell viability relative to DMSO; higher = less toxic
Calu-3 [2] = test: as above
HepG2 [3] = test: as above
U2OS [4] = test: as above
Vero E6 [5] = test: as above
Caco-2 [6] = test: relative viability EC50 (midpoint between 100% and the lowest measured viability); higher = less toxic
Calu-3 [7] = test: as above
HepG2 [8] = test: as above
U2OS [9] = test: as above
Vero E6 [10] = test: as above
Caco-2 [11] = test: drug sensitivity score (DSS) for viability; higher = more toxic; extreme values may be limits of the assay
Calu-3 [12] = test: as above
HepG2 [13] = test: as above
U2OS [14] = test: as above
Vero E6 [15] = test: as above

Row | Compound | cell viability (Caco-2 [1]; 1 nM) [%] | cell viability (Caco-2 [1]; 10 nM) [%] | cell viability (Caco-2 [1]; 100 nM) [%] | cell viability (Caco-2 [1]; 1000 nM) [%] | cell viability (Caco-2 [1]; 10000 nM) [%] | cell viability (Calu-3 [2]; 1 nM) [%] | cell viability (Calu-3 [2]; 10 nM) [%] | cell viability (Calu-3 [2]; 100 nM) [%] | cell viability (Calu-3 [2]; 1000 nM) [%] | cell viability (Calu-3 [2]; 10000 nM) [%] | cell viability (HepG2 [3]; 1 nM) [%] | cell viability (HepG2 [3]; 10 nM) [%] | cell viability (HepG2 [3]; 100 nM) [%] | cell viability (HepG2 [3]; 1000 nM) [%] | cell viability (HepG2 [3]; 10000 nM) [%] | cell viability (U2OS [4]; 1 nM) [%] | cell viability (U2OS [4]; 10 nM) [%] | cell viability (U2OS [4]; 100 nM) [%] | cell viability (U2OS [4]; 1000 nM) [%] | cell viability (U2OS [4]; 10000 nM) [%] | cell viability (Vero E6 [5]; 1 nM) [%] | cell viability (Vero E6 [5]; 10 nM) [%] | cell viability (Vero E6 [5]; 100 nM) [%] | cell viability (Vero E6 [5]; 1000 nM) [%] | cell viability (Vero E6 [5]; 10000 nM) [%] | relative viability EC50 (Caco-2 [6]) [µM] | relative viability EC50 (Calu-3 [7]) [µM] | relative viability EC50 (HepG2 [8]) [µM] | relative viability EC50 (U2OS [9]) [µM] | relative viability EC50 (Vero E6 [10]) [µM] | drug sensitivity score (Caco-2 [11]) | drug sensitivity score (Calu-3 [12]) | drug sensitivity score (HepG2 [13]) | drug sensitivity score (U2OS [14]) | drug sensitivity score (Vero E6 [15])
1 | CC(C)Oc1ccc(-c2nc(-c3cccc4c3CC[C@H]4NCCC(=O)O)no2)cc1C#N [RP-001] | 95 | 94.7 | 94.1 | 95.7 | 98.2 | 95.9 | 99.8 | 87.5 | 101 | 102 | 96.9 | 97.6 | 94.2 | 104 | 110 | 102 | 95.1 | 103 | 106 | 112 | 95 | 97.7 | 90.2 | 101 | 104 | > 10 | > 10 | > 10 | > 10 | > 10 | 0 | 0 | 0 | 0 | 0
2 | O=C(Nc1ccccc1F)N[C@H]1N=C(c2ccccc2)c2ccccc2NC1=O [RSV604] | 92.5 | 107 | 97.2 | 102 | 85.2 | 94.2 | 90.5 | 99.2 | 102 | 89.8 | 109 | 110 | 95.9 | 96.5 | 109 | 98.5 | 98.5 | 98.5 | 105 | 100 | 95.1 | 101 | 95.8 | 95.3 | 92 | > 10 | > 10 | > 10 | > 10 | > 10 | 0.1 | 0 | 0 | 0 | 0
3 | O[C@H]1CC[C@H](Nc2nc(-c3ccccc3)nc3[nH]ccc23)CC1 [SLV-320] | 102 | 94.4 | 102 | 102 | 102 | 99.5 | 93.9 | 99.5 | 90.8 | 102 | 92.8 | 106 | 94.9 | 99.2 | 91.7 | 99.5 | 94.4 | 97.7 | 95.7 | 96.9 | 104 | 109 | 101 | 99 | 91.4 | > 10 | > 10 | > 10 | > 10 | > 10 | 0 | 0 | 0 | 0 | 0
4 | C[C@H](Nc1cc(NS(=O)(=O)N2CCC2)nc(SCc2cccc(F)c2F)n1)[C@@H](O)CO [SRT3190] | 103 | 91 | 93.3 | 96 | 101 | 104 | 97.1 | 99.9 | 89.9 | 98.5 | 97.6 | 90.1 | 91 | 111 | 96 | 98.4 | 95.2 | 100 | 93.2 | 94.5 | 102 | 100 | 95.2 | 98.5 | 96.4 | > 10 | > 10 | > 10 | > 10 | > 10 | 0 | 0 | 0 | 0 | 0
5 | CC(=O)N1CCC(C(=O)N(CCCN2CCC(Cc3ccc(C(N)=O)cc3)CC2)c2ccc(C)c(Cl)c2)CC1 [TAK-220] | 85.2 | 95.1 | 93.5 | 102 | 98.3 | 100 | 101 | 98.3 | 101 | 97.9 | 99.9 | 87.2 | 94.1 | 94.5 | 98.6 | 97.3 | 99.3 | 99.4 | 99.9 | 95.3 | 113 | 101 | 106 | 92.4 | 106 | > 10 | > 10 | > 10 | > 10 | > 10 | 0 | 0 | 0 | 0 | 0
6 | COc1ccsc1CNCC[C@@]1(c2ccccn2)CCOC2(CCCC2)C1 [TRV130] | 105 | 104 | 101 | 93 | 97.6 | 103 | 96.9 | 101 | 112 | 104 | 105 | 95.6 | 91.9 | 102 | 94.9 | 103 | 102 | 102 | 96.9 | 100 | 96.9 | 100 | 95.7 | 94.5 | 96.6 | > 10 | > 10 | > 10 | > 10 | > 10 | 0 | 0 | 0 | 0 | 0
7 | CCCCNc1ncc2c(-c3ccc(CN4CCN(C)CC4)cc3)cn([C@H]3CC[C@H](O)CC3)c2n1 [UNC2025] | 88.5 | 103 | 97.3 | 95.5 | 33.6 | 98.5 | 99.7 | 100 | 87.1 | 34.2 | 88.6 | 94 | 92 | 54.7 | 5.2 | 98.4 | 103 | 97 | 60.3 | 0.3 | 95.3 | 101 | 100 | 73.3 | 34.6 | 2.62 | 1.75 | 1.02 | 1.21 | 1.16 | 4.3 | 5.7 | 10.5 | 10.5 | 7.2
8 | O=C(NCC(=O)N1CCCCC1)Nc1ccc2nnsc2c1 [UNC2327] | 95.3 | 102 | 95.4 | 105 | 95.4 | 95 | 97.5 | 90.8 | 103 | 99.3 | 87.1 | 93.7 | 103 | 99.7 | 98.1 | 99.9 | 106 | 96.3 | 99.1 | 99.8 | 97.5 | 103 | 98.7 | 101 | 104 | > 10 | > 10 | > 10 | > 10 | > 10 | 0 | 0 | 0 | 0 | 0
9 | c1cc2c3c(c1)c1c(n3CCNC2)CCCC1 [WAY-629] | 113 | 90.6 | 100 | 90 | 97.1 | 110 | 83.8 | 104 | 106 | 85.7 | 88.5 | 95.4 | 81.1 | 93 | 90.9 | 101 | 100 | 95.3 | 93 | 95.9 | 100 | 99.7 | 102 | 98.8 | 92.4 | > 10 | > 10 | > 10 | > 10 | > 10 | 0 | 0.1 | 0 | 0 | 0
10 | COC(=O)Nc1ccc(-c2nc(N3CCOCC3)c3cnn(C4CCN(Cc5cccnc5)CC4)c3n2)cc1 [WYE-687] | 93.6 | 93.9 | 88 | 47.8 | 21.6 | 100 | 95.5 | 79.2 | 37.2 | 20.4 | 97.5 | 111 | 92.8 | 54 | 17.6 | 104 | 97 | 100 | 74.2 | 19 | 94.2 | 95.9 | 89.3 | 71.3 | 37.6 | 0.496 | 0.271 | 0.818 | 1.36 | 0.925 | 11.5 | 14.2 | 10.1 | 8.2 | 6.9
11 | CCCC(=O)Nc1ccc(OCC(O)CNC(C)C)c(C(C)=O)c1 (stereo not given) [acebutolol] | 102 | 94.8 | 93 | 104 | 96.1 | 95.3 | 104 | 104 | 117 | 88.5 | 106 | 88.6 | 104 | 88.7 | 104 | 90.4 | 96.3 | 95.2 | 98 | 101 | 88.2 | 96.9 | 93.8 | 81.9 | 95.6 | > 10 | > 10 | > 10 | > 10 | > 10 | 0 | 0 | 0 | 0 | 0
12 | CC(=O)c1ccc2c(c1)N(CCCN(C)C)c1ccccc1S2 [acepromazine] | 104 | 93.1 | 99.6 | 86.4 | 102 | 111 | 102 | 92.9 | 96.1 | 83.5 | 98.3 | 96.4 | 101 | 91.9 | 94.7 | 101 | 95 | 100 | 93.9 | 95.7 | 101 | 101 | 99.4 | 99.4 | 89.2 | > 10 | > 10 | > 10 | > 10 | > 10 | 0 | 0.3 | 0 | 0 | 0
13 | Fc1ccc(-c2cncc(CN3CCN(c4cccc5c4OCCO5)CC3)c2)cc1 [adoprazine] | 91 | 102 | 98.5 | 109 | 100 | 102 | 105 | 93.8 | 94.2 | 104 | 104 | 90.6 | 92.8 | 106 | 91.7 | 98.2 | 99.7 | 92.1 | 104 | 95.4 | 103 | 98.6 | 93.9 | 98.8 | 105 | > 10 | > 10 | > 10 | > 10 | > 10 | 0 | 0 | 0 | 0 | 0
14 | COc1cccc2c1C(=O)c1c(O)c3c(c(O)c1C2=O)C[C@@](O)(/C(CO)=N/NC(=O)CCCCCN1C(=O)C=CC1=O)C[C@@H]3O[C@H]1C[C@H](N)[C@H](O)[C@H](C)O1 [aldoxorubicin] | 104 | 102 | 93.2 | 41.4 | 30.9 | 93.4 | 98.1 | 75.7 | 45.1 | 28 | 97.4 | 94 | 50.3 | 20.3 | 5.8 | 102 | 98.4 | 94.8 | 28.5 | 6 | 105 | 101 | 103 | 82 | 41.9 | 0.367 | 0.233 | 0.102 | 0.513 | 1.38 | 11.7 | 13.2 | 21.6 | 14.2 | 5.8
